#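 Results reflect a 48-hour exposure of cells in 96-well plates to compound at five concentrations. GI50 marks 50% less growth. TGI denotes the concentration required for complete inhibition of growth.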
# What was measured:
# Experiment in all cases: inhibition of tumour cell growth, NCI panel, 48 h
# HCC-2998 colon = system: HCC-2998 colon
# HOP-62 NSCLC = system: HOP-62 NSCLC
# IGROV1 ovarian = system: IGROV1 ovarian
# K-562 leukemia = system: K-562 leukemia
# M14 melanoma = system: M14 melanoma
# MDA-MB-231 breast = system: MDA-MB-231 breast
# MDA-MB-435 = system: MDA-MB-435
# OVCAR-3 ovarian = system: OVCAR-3 ovarian
# SF-268 CNS = system: SF-268 CNS
# SK-OV-3 ovarian = system: SK-OV-3 ovarian
Compound,GI50 (HCC-2998 colon),TGI (HCC-2998 colon),GI50 (HOP-62 NSCLC),TGI (HOP-62 NSCLC),GI50 (IGROV1 ovarian),TGI (IGROV1 ovarian),GI50 (K-562 leukemia),TGI (K-562 leukemia),GI50 (M14 melanoma),TGI (M14 melanoma),GI50 (MDA-MB-231 breast),TGI (MDA-MB-231 breast),GI50 (MDA-MB-435),TGI (MDA-MB-435),GI50 (OVCAR-3 ovarian),TGI (OVCAR-3 ovarian),GI50 (SF-268 CNS),TGI (SF-268 CNS),GI50 (SK-OV-3 ovarian),TGI (SK-OV-3 ovarian)
[N-]=[N+]=NCCCn1c2c(c3ccc([N+](=O)[O-])cc3c1=O)C(=O)c1cc(Br)ccc1-2,> 100 µM,> 100 µM,56.1 µM,> 100 µM,> 100 µM,> 100 µM,> 100 µM,> 100 µM,3.02 µM,> 100 µM,> 100 µM,> 100 µM,> 100 µM,> 100 µM,> 100 µM,> 100 µM,> 100 µM,> 100 µM,> 100 µM,> 100 µM
CC(C)OC(=S)Nc1ccc(Cl)c(/C=N/OC(C)(C)C)c1,,41.4 µM,,41.4 µM,,36.6 µM,,43 µM,,39.9 µM,,31.5 µM,,32.3 µM,,33.6 µM,,40.4 µM,,41.6 µM
CS(=O)(=O)OCCCNCCCOS(C)(=O)=O,,3670 µM,,6030 µM,,7300 µM,,9080 µM,,5050 µM,,6120 µM,,8690 µM,,7600 µM,,7620 µM,,7470 µM
CCCc1cc(=O)n2c(C(=O)Nc3ccc(F)cc3)c(C(=O)Nc3ccc(F)cc3)sc2n1,> 160 µM,> 160 µM,2.29 µM,33.2 µM,30.3 µM,148 µM,10.6 µM,> 160 µM,23.5 µM,81 µM,4.8 µM,23.8 µM,> 160 µM,> 160 µM,22.9 µM,49.8 µM,18.8 µM,95.6 µM,41.7 µM,> 160 µM
COc1cc(C2C3=C(COC3=O)N(CCO)c3cc4c(cc32)OCCO4)cc(OC)c1OC (centres undefined),0.127 µM,0.335 µM,0.465 µM,> 50 µM,0.165 µM,0.898 µM,0.177 µM,> 50 µM,0.181 µM,,0.185 µM,2.72 µM,0.103 µM,0.256 µM,0.135 µM,0.315 µM,0.374 µM,> 50 µM,0.224 µM,> 14.5 µM
CN(C)CC1CC/C(=C\c2ccc3c(c2)OCO3)C1=O (centres undefined),,50.7 µM,,> 70.1 µM,,26.9 µM,,11.4 µM,,15 µM,,4.25 µM,,4.43 µM,,15.3 µM,,26.7 µM,,> 57 µM
N#CC1=C(N)Oc2c(ccc3ccccc23)C1c1cc(=O)oc2ccc(Cl)cc12 (centres undefined),2.72 µM,19.5 µM,0.672 µM,> 100 µM,0.873 µM,> 100 µM,0.375 µM,> 100 µM,0.441 µM,> 100 µM,4.36 µM,> 100 µM,0.244 µM,0.947 µM,0.386 µM,12.3 µM,2.02 µM,> 100 µM,0.965 µM,> 100 µM
CC/C(Cc1ccccc1)=C(\c1ccc(OCCN2CCCC2)cc1)c1ccc(OC(=O)NCc2ccccc2)cc1,1.51 µM,2.94 µM,2.07 µM,3.75 µM,1.93 µM,3.87 µM,1.7 µM,4.4 µM,1.73 µM,3.31 µM,1.84 µM,3.35 µM,1.67 µM,3.12 µM,1.86 µM,3.56 µM,1.81 µM,3.77 µM,11.6 µM,24.6 µM
ClCc1ccccc1Cn1cnc2ncnc(Cl)c21,2.26 µM,4.22 µM,11.1 µM,29 µM,4.28 µM,22.7 µM,2.23 µM,5.86 µM,1.92 µM,5.17 µM,2.78 µM,6.97 µM,1.95 µM,3.84 µM,2.06 µM,4.16 µM,4.76 µM,24.4 µM,7.57 µM,26.8 µM
Nc1nc2c(C(=O)NCc3cccs3)nnn2c2cccc(Cl)c12,,> 100 µM,,> 100 µM,,> 100 µM,,> 100 µM,,> 100 µM,,> 100 µM,,> 100 µM,,> 100 µM,,> 100 µM,,> 100 µM
C#Cc1cccc(Nc2nc(Cl)nc3cc(NC(=O)CCl)ccc23)c1,0.7 µM,2.02 µM,1.99 µM,5.32 µM,0.5 µM,1.12 µM,0.792 µM,3.03 µM,0.764 µM,2.64 µM,0.758 µM,2.73 µM,1.04 µM,3.83 µM,0.47 µM,0.984 µM,0.557 µM,1.48 µM,2.88 µM,6.1 µM
CN=C1C=CC(=C(c2ccc(N(C)C)cc2)c2ccc(N(C)C)cc2)C=C1,0.309 µM,1.27 µM,0.0765 µM,1.48 µM,0.42 µM,6.38 µM,0.0784 µM,1.1 µM,0.28 µM,1.08 µM,0.267 µM,0.785 µM,0.251 µM,0.66 µM,0.295 µM,0.936 µM,0.25 µM,1.54 µM,0.261 µM,0.828 µM
C=C1C(O)C2CC(C)(CO)C(=O)C2=C(CC(C)C)C12CC2 (centres undefined),> 100 µM,> 100 µM,> 100 µM,> 100 µM,> 100 µM,> 100 µM,31.9 µM,> 100 µM,92.7 µM,> 100 µM,> 100 µM,> 100 µM,75 µM,> 100 µM,36.5 µM,92.4 µM,> 100 µM,> 100 µM,> 100 µM,> 100 µM
COC(=O)c1c(-c2cccs2)oc(-c2cccs2)c1C(=O)OC,36.2 µM,> 82.8 µM,32.8 µM,> 100 µM,36.2 µM,> 100 µM,44.9 µM,> 100 µM,20.3 µM,55.2 µM,34 µM,> 94.5 µM,26 µM,87 µM,30.4 µM,> 94.5 µM,42 µM,> 100 µM,> 100 µM,> 100 µM

# From PubChem BioAssay (NCI)
